Data on three compounds can be found in ChEMBL document CHEMBL4251720, “Estrogen Receptor (ER) Subtype Selectivity Identifies 8-Prenylapigenin as an ERβ Agonist from Glycyrrhiza inflata and Highlights the Importance of Chemical and Biological Authentication” (J Nat Prod, 2018).

The target in series [1] is T1, Estrogen receptor (Homo sapiens, UniProt P03372).
T1 sequence (P03372 whole entry): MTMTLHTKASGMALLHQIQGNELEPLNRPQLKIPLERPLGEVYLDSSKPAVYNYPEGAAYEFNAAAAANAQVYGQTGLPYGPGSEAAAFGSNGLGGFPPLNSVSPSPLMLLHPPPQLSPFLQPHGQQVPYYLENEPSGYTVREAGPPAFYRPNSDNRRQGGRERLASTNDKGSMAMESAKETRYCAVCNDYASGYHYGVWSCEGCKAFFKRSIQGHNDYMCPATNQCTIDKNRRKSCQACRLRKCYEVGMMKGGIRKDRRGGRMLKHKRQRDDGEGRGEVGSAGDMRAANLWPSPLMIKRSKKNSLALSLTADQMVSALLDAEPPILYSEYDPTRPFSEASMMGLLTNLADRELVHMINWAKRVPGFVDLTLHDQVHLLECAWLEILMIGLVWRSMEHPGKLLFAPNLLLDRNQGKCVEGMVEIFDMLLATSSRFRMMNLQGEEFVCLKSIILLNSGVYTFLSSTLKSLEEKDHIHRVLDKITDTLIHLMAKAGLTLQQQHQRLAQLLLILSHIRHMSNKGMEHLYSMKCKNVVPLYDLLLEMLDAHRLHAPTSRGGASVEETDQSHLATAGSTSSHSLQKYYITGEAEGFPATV
Description: Estrogenic activity at ERalpha in human Ishikawa cells assessed as induction of alkaline phosphatase activity using p-nitrophenol as substrate treated for 96 hrs followed by substrate addition by spectrophotometric method

The target in series [2] is T2, Estrogen receptor alpha (ERalpha) (Homo sapiens, UniProt P03372).
T2 sequence (P03372 whole entry): T1 sequence (P03372 whole entry)
Nature of the series: in vitro. Particulars: Ishikawa cells, probe p-nitrophenol (so in the source) as alkaline phosphatase substrate; call rule not given here.

The target of series [3] is T3, Estrogen receptor beta (Homo sapiens, UniProt Q92731).
T3 sequence (Q92731 whole entry): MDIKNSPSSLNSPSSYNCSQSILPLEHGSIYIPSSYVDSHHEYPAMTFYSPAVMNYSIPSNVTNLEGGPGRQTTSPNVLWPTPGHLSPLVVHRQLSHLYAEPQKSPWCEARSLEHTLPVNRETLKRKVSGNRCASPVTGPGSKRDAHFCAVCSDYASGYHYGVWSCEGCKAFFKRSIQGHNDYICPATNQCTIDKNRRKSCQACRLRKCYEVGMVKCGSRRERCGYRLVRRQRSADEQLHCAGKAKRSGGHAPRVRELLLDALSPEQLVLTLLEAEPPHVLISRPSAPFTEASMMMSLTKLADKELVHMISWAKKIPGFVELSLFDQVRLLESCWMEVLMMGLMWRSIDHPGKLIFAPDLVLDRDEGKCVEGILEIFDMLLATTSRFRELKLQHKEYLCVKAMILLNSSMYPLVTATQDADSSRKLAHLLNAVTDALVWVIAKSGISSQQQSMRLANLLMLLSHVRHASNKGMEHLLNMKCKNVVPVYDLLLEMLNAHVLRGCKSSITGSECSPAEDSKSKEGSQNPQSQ
Description: (§1) Estrogenic activity at ERbeta (unknown origin) expressed in human MDA-MB-231/beta41 cells after 18 hrs by renilla luciferase reporter gene assay
Series [4] addresses T1, Estrogen receptor. Nature of the series: Estrogenic activity at ERalpha in human Ishikawa cells assessed as induction of alkaline phosphatase activity at 0.01 to 1 uM using […] as substrate treated for 96 hrs followed by substrate addition by spectrophotometric method. It is filed as cell-based.
The target of series [5] is T3, Estrogen receptor beta. This is another data set of the same source.
Description: as §1

In general, EC50 refers to the concentration needed to bring the measured effect to its halfway point. Lower therefore signals greater potency. In general, Emax refers to the maximal effect, on the per cent scale that the assay sets. In the case of `CCCc1c(-c2ccc(O)cc2)nn(-c2ccc(O)cc2)c1-c1ccc(O)cc1` [PROPYLPYRAZOLETRIOL], the EC50 on Estrogen receptor [1] was 1 nM; on Estrogen receptor beta [3] it was “Not Active”. For the same compound, the Emax at 96 h in series [2] worked out at 119%.

Regarding `COc1cc(O)c(C(=O)/C=C/c2ccc(O)cc2)cc1CC=C(C)C`, the Activity result at Estrogen receptor [4] is given as “Not Active”.

As to `CC(C)=CCc1c(O)cc(O)c2c1O[C@H](c1ccc(O)cc1)CC2=O`, at Estrogen receptor beta [5], the EC50 was found to be 5 nM.
